PMC8136874, “The entry reaction of the plant shikimate pathway is subjected to highly complex metabolite-mediated regulation” (The Plant Cell, 2021)

Experiments:
AthDHS2 = biological target: T1, AthDHS2 (Arabidopsis thaliana, UniProt Q00218); assay: DHS enzymatic activity assay with recombinant AthDHS2; type: biochemical; settings: for k cat / K m / V max: various concentrations of the substrate; for k cat: E4P values assume no substrate inhibition; for K m / V max: E4P values estimated from Lineweaver–Burk plots because of substrate inhibition; for effect on AthDHS2 activity (in words) / inhibition of AthDHS2 activity: 1 mM effector
T1 construct: AthDHS2; residues 34–507; hexa-histidine; made in house; host or cells: E. coli Rosetta2 (DE3), pET28a

AthDHS1 = biological target: T2, AthDHS1 (Arabidopsis thaliana, UniProt P29976); assay: DHS enzymatic activity assay with recombinant AthDHS1; type: biochemical; settings: for K m / V max / k cat: various concentrations of the substrate, means ± SEM, n = 3; for effect on AthDHS1 activity (in words): 1 mM effector
T2 construct: AthDHS1; residues 49–525; hexa-histidine; made in house; host or cells: E. coli Rosetta2 (DE3), pET28a
Description: (§1) Unless otherwise noted, DHS enzymatic activity was monitored as previously described ([Liu et al., 2008]), with several optimizations for high-throughput assays with eight-strip PCR tubes and a thermal cycler. The enzyme solution (7.7 µL) containing 50 mM HEPES (pH 7.4) was preincubated with an effector molecule(s) at room temperature for 10 min. For assays using recombinant protein and enzyme fraction isolated from plant leaves, 0.01–0.05 µg and approximately 50 µg of proteins were used, respectively. After adding 0.5 µL of 0.1 M DTT, the samples were further incubated at room temperature for 15 min. […] The enzyme reaction was started by adding 6.8 µL of the substrate solution, then incubated at 37°C for 20 min, and terminated by adding 30 µL of 0.6 M trichloroacetic acid. After brief centrifugation, 5 µL of 200 mM NaIO4 (sodium meta-periodate) in 9 N H3PO4 was added to oxidize the enzymatic product and incubate at 25°C for 20 min. To stop the oxidation reaction, 20 µL of 0.75 M NaAsO2 (sodium arsenite), which was dissolved in 0.5 M Na2SO4 and 0.05 M H2SO4, was immediately mixed. After 5 min of incubation at room temperature, one-third of the sample solution was transferred to a new tube to be mixed with 50 µL of 40 mM thiobarbituric acid and incubated at 99°C for 15 min in a thermal cycler. Developed pink chromophore was extracted by putting the final solutions with 600 µL of cyclohexanone in eight-strip solvent-resistant plastic tubes, mixing vigorously and centrifuging them at 4,500 × g for 3 min to separate water- and cyclohexanone-based layers. The absorbance of the pink supernatant was read at 549 nm with the microplate reader (Infinite 200 PRO, TECAN, Männedorf, Switzerland) to calculate DAHP production with the molar extinction coefficient at 549 nm (ε = 549 nm) of 4.5 × 10^4/M/cm. Reaction mixtures with boiled enzyme or without any substrates were run in parallel and used as negative controls to estimate the background signal for recombinant enzymes or enzymatic fraction from plant tissues, respectively.
(§2) For determination of kinetic parameters, the data of enzymatic activities measured in the presence of various concentration of substrates were calculated with the Michaelis–Menten equation in Graphpad Prism 6 (GraphPad Software, San Diego, CA, USA).

AthDHS3 = AthDHS3 (Arabidopsis thaliana, UniProt Q9SK84); assay: DHS enzymatic activity assay with recombinant AthDHS3; type: biochemical; settings: for V max: various concentrations of the substrate, means ± SEM, n = 3
Description: as §1, §2

[1] = tested on: root growth of Arabidopsis Col-0 and dhs mutants; assay: Chemical feeding experiment, root length of 10-day-old seedlings; type: in vivo, Arabidopsis thaliana; settings: for effect of the added compound on Trp-mediated root growth inhibition of dhs3: media with 300 µM Trp; for effect of the added compound on Trp-mediated root growth inhibition of dhs3 / effect of the added compound on Tyr-mediated root growth inhibition of dhs1: AAAs added at 300 µM, shikimate at 500 µM; for effect of the added compound on Tyr-mediated root growth inhibition of dhs1: media with 300 µM Tyr
Description: Chemical feeding experiments were carried out as described previously ([de Oliveira et al., 2019]) with some modifications. Seedlings were grown on agar plates containing 0.5 MS with 1% sucrose, 0.8% agar, and 2.5 mM MES at pH 5.7 in the growth chamber where we grew other plants in soil. AAAs and/or shikimate were added to autoclaved media after cooling down to temperatures below 55°C. Plants were grown on the same plate side by side to minimize environmental effects, and multiple plates were prepared to obtain replications. Root lengths of 10-day-old seedlings were quantified by ImageJ.

[2] = tested on: AthDHS1 and AthDHS2 mixtures; assay: DHS assay using mixtures of AthDHS1 and AthDHS2 recombinant enzymes; type: biochemical, Arabidopsis thaliana; settings: 1 mM effector; molar ratios 0, 0.25, 0.5, 0.75, 1
Description: Next, we thought that the presence of non-inhibited DHS isoforms (e.g. AthDHS1) may affect the AAA sensitivity of AthDHS2, given that AthDHSs are known to function as tetrameric or dimeric forms ([Suzich et al., 1985]; [Pinto et al., 1986]; [Webby et al., 2005]). To test this, the recombinant enzymes of AAA non-inhibited AthDHS1 and AAA-inhibited AthDHS2 were mixed with different ratios (0, 0.25, 0.5, 0.75, and 1) and DHS activity assays were conducted with different inhibitors. Based on the kinetic parameters and the regulatory behaviors of individual AthDHSs, the expected level of DHS activity was first calculated and plotted (dotted lines in Figure 5, D, see the “Materials and methods” section). […] Similar results were obtained for the AthDHS2 and AthDHS3 mixture (Figure 5, E).
Unless otherwise noted, DHS enzymatic activity was monitored as previously described ([Liu et al., 2008]), with several optimizations for high-throughput assays with eight-strip PCR tubes and a thermal cycler. The enzyme solution (7.7 µL) containing 50 mM HEPES (pH 7.4) was preincubated with an effector molecule(s) at room temperature for 10 min. For assays using recombinant protein and enzyme fraction isolated from plant leaves, 0.01–0.05 µg and approximately 50 µg of proteins were used, respectively. After adding 0.5 µL of 0.1 M DTT, the samples were further incubated at room temperature for 15 min. […] The enzyme reaction was started by adding 6.8 µL of the substrate solution, then incubated at 37°C for 20 min, and terminated by adding 30 µL of 0.6 M trichloroacetic acid. After brief centrifugation, 5 µL of 200 mM NaIO4 (sodium meta-periodate) in 9 N H3PO4 was added to oxidize the enzymatic product and incubate at 25°C for 20 min. […] The absorbance of the pink supernatant was read at 549 nm with the microplate reader (Infinite 200 PRO, TECAN, Männedorf, Switzerland) to calculate DAHP production with the molar extinction coefficient at 549 nm (ε = 549 nm) of 4.5 × 10^4/M/cm. […]

[3] = tested on: shikimate accumulation in Col-0 and dhs mutants; assay: Shikimate content with and without Tyr and/or glyphosate treatment; type: in vivo, Arabidopsis thaliana; settings: 250 µM glyphosate, 2 days; for increase of shikimate accumulation after treatment: plants grown with 300 µM Tyr
Description: Approximately 50–80 mg of fully expanded mature leaves were pooled from multiple plants at the same developmental stages and ground in 800 µL of extraction buffer (v/v 2:1 of methanol and chloroform with 2 µg/mL isovitexin [Millipore-Sigma], 100 µM norvaline [Thermo Fisher Scientific], and 1.25 µg/mL Tocol [Matreya LLC, State College, PA, USA] for internal standards for soluble metabolite analysis by LC–MS and GC–MS and tocopherol analysis by GC–MS, respectively), using 1600 MiniG Tissue Homogenizer (SPEX SamplePrep, Metuchen, USA) and 3-mm glass beads. After adding 600 µL of H2O and then 250 µL of chloroform, polar phase containing amino acids, and non‐polar phase containing tocopherols were separated by centrifugation, dried in new tubes. To detect Trp and AAA-derived metabolites, LC–MS analysis was carried out as previous described with some modification ([Alseekh et al., 2015]). The dried metabolites were resuspended in 70 µL of 80% LC–MS-grade methanol. Two microliters of the sample was injected onto a HSS T3 C18 reversed phase column (100 × 2.1 mm i.d., 1.8-μm particle size; Waters, Milford, CT, USA) and eluted using a 20-min gradient comprising 0.1% formic acid in LC–MS-grade water (solvent A) and 0.1% formic acid in LC–MS-grade acetonitrile (solvent B) at a flow rate of 0.4 mL/min and column temperature of 40°C. The binary linear gradient with following ratios of solvent B was used: 0–1 min, 1%; 1–13 min, 1%–35%; 13–14.5 min, 35%–70%; 14.5–15.5 min, 70%–99%, 15.5–17 min, 99%; 17–17.5 min, 99%–[…]; 17.5–20 min, 1%. The spectra were recorded using full scan mode of negative ion detection, covering a mass range from m/z 100 to 1,500. The resolution was set to 25,000 and the maximum scan time was set to 250 ms. The sheath gas was set to a value of 60, while the auxiliary gas was set to 35. The transfer capillary temperature was set to 150°C, while the heater temperature was adjusted to 300°C. The spray voltage was fixed at 3 kV, with a capillary voltage and a skimmer voltage of 25 and 15 V, respectively. Retention times, MS spectra, and associated peak intensities were extracted from the raw files using the Xcalibur software (Thermo Fisher Scientific). […] For anthocyanin quantification, the polar phase isolated for amino acid analysis was diluted 10 times with water in a new tube. […] Shikimate level was spectrometrically determined based on previous literatures ([Shaner et al., 2005]; [Sharkhuu et al., 2014]). […] After stopping the reaction by adding 100 µL of a termination solution containing 0.6 N sodium hydroxide and 0.22 M sodium sulfite, the absorption at 380 nm was immediately measured with the microplate reader. Shikimate concentration was determined by comparing with a dilution series of the shikimate standards.

T1 sequence (Q00218 34-507): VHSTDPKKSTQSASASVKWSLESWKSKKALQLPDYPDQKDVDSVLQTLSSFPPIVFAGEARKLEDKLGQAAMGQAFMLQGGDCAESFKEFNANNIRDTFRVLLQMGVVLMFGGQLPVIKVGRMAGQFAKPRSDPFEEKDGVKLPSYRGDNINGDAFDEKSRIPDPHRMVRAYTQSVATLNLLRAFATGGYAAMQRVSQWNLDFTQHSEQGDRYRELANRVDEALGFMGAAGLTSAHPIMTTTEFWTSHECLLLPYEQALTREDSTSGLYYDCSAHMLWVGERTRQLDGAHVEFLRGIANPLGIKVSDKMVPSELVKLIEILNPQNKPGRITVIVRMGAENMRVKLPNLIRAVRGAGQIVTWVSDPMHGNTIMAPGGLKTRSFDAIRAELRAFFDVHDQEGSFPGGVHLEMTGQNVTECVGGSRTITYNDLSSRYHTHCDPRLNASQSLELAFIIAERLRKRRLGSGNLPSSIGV
T2 sequence (P29976 49-525): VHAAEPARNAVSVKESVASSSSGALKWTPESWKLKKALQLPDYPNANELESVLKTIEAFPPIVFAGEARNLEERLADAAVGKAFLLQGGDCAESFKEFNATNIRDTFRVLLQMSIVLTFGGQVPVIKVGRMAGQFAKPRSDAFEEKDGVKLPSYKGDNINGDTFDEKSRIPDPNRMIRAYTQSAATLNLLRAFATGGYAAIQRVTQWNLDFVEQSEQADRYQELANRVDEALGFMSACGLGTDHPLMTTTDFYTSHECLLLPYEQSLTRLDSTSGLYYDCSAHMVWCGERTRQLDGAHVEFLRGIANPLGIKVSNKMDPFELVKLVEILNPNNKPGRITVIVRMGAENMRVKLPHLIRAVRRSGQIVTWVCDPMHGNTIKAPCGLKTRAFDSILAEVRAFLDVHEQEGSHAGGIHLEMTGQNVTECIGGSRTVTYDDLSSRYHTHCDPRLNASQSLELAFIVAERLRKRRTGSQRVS
Sequence of AthDHS3 (Q9SK84 entry or part of it): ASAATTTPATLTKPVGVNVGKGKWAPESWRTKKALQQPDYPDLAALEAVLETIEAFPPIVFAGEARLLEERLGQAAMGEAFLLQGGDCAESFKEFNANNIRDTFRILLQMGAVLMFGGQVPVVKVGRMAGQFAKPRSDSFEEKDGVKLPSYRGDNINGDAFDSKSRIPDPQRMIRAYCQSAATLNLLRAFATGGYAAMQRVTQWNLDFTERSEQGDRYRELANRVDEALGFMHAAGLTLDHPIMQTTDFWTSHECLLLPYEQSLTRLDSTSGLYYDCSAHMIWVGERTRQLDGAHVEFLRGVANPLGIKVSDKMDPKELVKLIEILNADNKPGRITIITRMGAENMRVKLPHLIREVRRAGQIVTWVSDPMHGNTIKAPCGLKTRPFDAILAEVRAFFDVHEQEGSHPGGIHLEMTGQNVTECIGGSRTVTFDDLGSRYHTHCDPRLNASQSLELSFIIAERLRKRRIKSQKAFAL

O=C[C@H](O)[C@H](O)COP(=O)(O)O [E4P, D-erythrose 4-phosphate]
substrate concentration beyond which AthDHS2 was inhibited (AthDHS2; substrate inhibition): > 4 mM | k cat (AthDHS2): 11.8 ± 1.6 s⁻¹ | K m (AthDHS2): 1755 ± 400 µM | V max (AthDHS2): 12.9 ± 1.8 nmol/µM/min | K m (AthDHS1): 2842 ± 910 µM | V max (AthDHS1): 17.8 ± 0.59 nmol/µM/min | k cat (AthDHS1): 16.4 ± 0.54 s⁻¹ | V max (AthDHS3): 9.92 ± 0.31 nmol/µM/min

C=C(OP(=O)(O)O)C(=O)O [PEP, phosphoenolpyruvate]
k cat (AthDHS2): 8.95 ± 0.44 s⁻¹ | K m (AthDHS2): 360 ± 34 µM | V max (AthDHS2): 9.81 ± 0.48 nmol/µM/min | K m (AthDHS1): 250 ± 53 µM | V max (AthDHS1): 15.3 ± 0.62 nmol/µM/min | k cat (AthDHS1): 14 ± 0.57 s⁻¹ | V max (AthDHS3): 9.15 ± 0.27 nmol/µM/min

N[C@@H](CC(=O)O)C(=O)O [aspartate]
effect on AthDHS1 activity (in words) (AthDHS1): did not affect

O=C(O)/C=C/c1ccc(O)cc1 [p-coumarate]
effect on AthDHS2 activity (in words) (AthDHS2): no effects | effect on AthDHS1 activity (in words) (AthDHS1): no effects | effect on AthDHS3 activity (in words) (AthDHS3; 1 mM effector): no effects

O=C(O)/C=C/c1ccccc1 [cinnamate]
effect on AthDHS2 activity (in words) (AthDHS2): no effects | effect on AthDHS1 activity (in words) (AthDHS1): no effects | effect on AthDHS3 activity (in words) (AthDHS3; 1 mM effector): no effects

O=C(O)C1=C[C@@H](O)[C@@H](O)[C@H](O)C1 [shikimate]
sensitivity of root growth ([1]; dhs mutants, up to 1000 µM): none of the dhs mutants showed sensitivity | effect of the added compound on Trp-mediated root growth inhibition of dhs3 [1]: no effect | effect of the added compound on Tyr-mediated root growth inhibition of dhs1 [1]: no effect | inhibition of AthDHS2 activity (AthDHS2): approximately 30% | effect on AthDHS1 activity (in words) (AthDHS1): did not significantly affect | effect on AthDHS3 activity (in words) (AthDHS3; 1 mM effector): did not significantly affect

N[C@@H](Cc1ccccc1)C(=O)O [Phe, L-phenylalanine]
observed DHS activity of the enzyme mixtures versus theoretically calculated activity [2]: matched with the theoretical plot | IC50 ([1]; Arabidopsis thaliana, read-out: IC50 of root growth suppression): ~550 µM | concentration that suppressed root growth ([1]; all dhs mutants, similarly to Col-0): > 300 µM | effect of the added compound on Trp-mediated root growth inhibition of dhs3 [1]: not recovered | effect of the added compound on Tyr-mediated root growth inhibition of dhs1 [1]: not sufficient | concentration beyond which AthDHS2 activity is slightly activated (AthDHS2; 1 µM to at least 5 mM tested): > 5 mM | effect on AthDHS2 activity (in words) (AthDHS2): did not significantly affect | effect on AthDHS1 activity (in words) (AthDHS1): did not significantly affect | effect on AthDHS3 activity (in words) (AthDHS3; 1 mM effector): did not significantly affect

COc1cc(/C=C/C(=O)O)cc(OC)c1O [sinapate]
effect on AthDHS2 activity (in words) (AthDHS2): no effects | effect on AthDHS1 activity (in words) (AthDHS1): no effects | effect on AthDHS3 activity (in words) (AthDHS3; 1 mM effector): no effects

O=C(O)CNCP(=O)(O)O [glyphosate]
increase of shikimate accumulation after treatment ([3]; dhs2): five-fold | increase of shikimate accumulation after treatment ([3]; other genotypes): two–three-fold | effect on shikimate levels ([3]; without Tyr, similar between genotypes): increased shikimate levels

O=C(O)C(=O)CC1(C(=O)O)C=CC(O)C=C1 (stereo not shown) [prephenate]
inhibition of AthDHS2 activity (AthDHS2): ~25% | effect on AthDHS1 activity (in words) (AthDHS1): did not significantly affect | effect on AthDHS3 activity (in words) (AthDHS3; 1 mM effector): did not significantly affect

COc1cc(/C=C/C(=O)O)ccc1O [ferulate]
effect on AthDHS2 activity (in words) (AthDHS2): no effects | effect on AthDHS1 activity (in words) (AthDHS1): no effects | effect on AthDHS3 activity (in words) (AthDHS3; 1 mM effector): no effects

O=C(/C=C/c1ccc(O)c(O)c1)OC1CC(C(=O)O)=CC(O)C1O (stereo not shown) [Caffeoyl shikimate]
effect on AthDHS2 activity (in words) (AthDHS2): fully inhibited | effect on AthDHS1 activity (in words) (AthDHS1): fully inhibited | reduction of AthDHS3 activity (AthDHS3; 1 mM effector): 70%
